A word on the EC50: it is the concentration giving half of the maximal effect.

This assay has as its target S. pyogenes SKKanGAS, kanamycin survival, BacTiterGlo, 6 h. The assay is described as follows: SKKanGAS survival reduction under kanamycin, dose response, streptokinase promoter inhibitor project, SKKanGAS strain, luminescence, dose confirmation (AID 1902).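 Note: lower survival reflects blocked streptokinase promoter driving kanamycin resistance gene.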

The source made the active and inactive calls.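 Rule for the calls: active = EC50 no more than a set limit of log units above the highest dose; inactive = the rest.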

Turning to `C[C@]12CC[C@@H]3c4ccc(OC(=O)c5ccccc5)cc4CC[C@H]3[C@@H]1CC[C@@H]2O`, the EC50 was 1.92 µM.

In the case of `Cc1ccc2nc(-c3ccc(NS(=O)(=O)c4ccc(F)c(F)c4)cc3)sc2c1`, the half-maximal effective concentration (EC50) is 2.69 µM.

Take `CCC(Oc1ccccc1)C(=O)Nc1ccccc1N1CCCCC1` (configuration not stated): the EC50 is 3.3 µM.

Take `CC(C)c1ccc(NC(=O)NC(C)c2ccc3c(c2)OCO3)cc1` (configuration not stated): the EC50 was > 15 µM (inactive).

Regarding `N#C/C(=C(/O)c1cc2ccccc2o1)c1nc2ccccc2s1`, the EC50 was 9.58 µM.

On to `Fc1ccc(-[n+]2nc(Nc3ccccc3)sc2-c2c3ccccc3cc3ccccc23)cc1`, for which the EC50 was 5.95 µM.

Take `C=C(C)COc1ccc(-c2n[nH]c(C)c2-c2ccc(Br)cc2)c(O)c1`: the EC50 is 2.21 µM.

For the compound `Cc1cc(Cl)c2oc(C(=O)N3CCN(C(=O)c4ccco4)CC3)c(C)c2c1`, the concentration for a half-maximal effect (EC50) is 4.45 µM.

Regarding `C/C(=N\Nc1nc2ccccc2[nH]1)c1ccc2c(c1)OCO2`, the EC50 is 4.28 µM.

Turning to `COc1cccc(C(=O)OCC(=O)Nc2nnc(-c3ccccc3)o2)c1`, the concentration giving a half-maximal response (EC50) was 8.68 µM.

Consider `O=C(Nc1nc(-c2cc(Cl)sc2Cl)cs1)c1cccs1`, for which the EC50 is 8.68 µM.

Regarding `CC(C)c1ccc(-c2cc(C(=O)N3N=C(C(F)F)CC3(O)C(F)F)c3ccccc3n2)cc1` (configuration not stated), the concentration giving a half-maximal response (EC50) is 3.11 µM.

For `CCCCNC(=O)c1onc(CSc2ccc(C(C)C)cc2)c1C(=O)O`, the EC50 was 4.13 µM.

For the compound `Cc1cccc(NC(=O)c2nc[nH]c2C(=O)N[C@@H](CCCCNC(=O)OC(C)(C)C)C(=O)OC(C)(C)C)c1`, the concentration for a half-maximal effect (EC50) is 2.83 µM.

As for `CCOc1ccc(-c2csc(/C(C#N)=C\c3ccc(O)c([N+](=O)[O-])c3)n2)cc1`, the 50% effective concentration (EC50) was 1.99 µM.

For the compound `O=C(Nc1cccc(-c2csc(Nc3cccc(C(F)(F)F)c3)n2)c1)c1ccccc1`, the half-maximal effective concentration (EC50) was 4.33 µM.

Consider `O=C1NC(=O)/C(=C/c2ccccc2Oc2ccc(Cl)cc2)S1`, for which the concentration giving a half-maximal response (EC50) is 6.33 µM.

In the case of `COc1ccc(C(=O)NNC(=S)NC(=O)/C=C/c2cccs2)cc1`, the concentration giving a half-maximal response (EC50) was 0.598 µM.

Consider `Cc1ccc(C(=O)NC(=S)N(C)C2CCCCC2)cc1Br`, for which the concentration giving a half-maximal response (EC50) was 2.96 µM.

`COC(=O)c1c(C)[nH]c(C(=O)OCC(=O)N(CC(C)C)c2c(N)n(Cc3ccccc3)c(=O)[nH]c2=O)c1C`: the 50% effective concentration (EC50) is 9.34 µM.

Turning to `Clc1ccc(-c2n[nH]c3c2CCC3)c(Cl)c1`, the EC50 is 0.975 µM.

For `O=C1c2cccc3c([N+](=O)[O-])ccc(c23)C(=O)N1O`, the concentration for a half-maximal effect (EC50) was 1.16 µM.

`CC(C)C[C@H](NC(=O)N1CC(=O)Nc2ccccc21)C(=O)N[C@H](C(=O)O)c1ccccc1`: the EC50 was > 15 µM (inactive).

As to `COc1cc(/C=N/Nc2ncnc3sc4c(c23)CCC4)ccc1O`, the half-maximal effective concentration (EC50) was 2.11 µM.

Regarding `CC1(c2ccccc2)CC(C)(C)N2C(=O)/C(=C3\SC(=S)NC3=O)c3cccc1c32` (configuration not stated), the concentration for a half-maximal effect (EC50) was 0.43 µM.

In the case of `CC(C)Oc1ccc(C(=O)Nc2nc3ccccc3[nH]2)cc1`, the half-maximal effective concentration (EC50) is 1.41 µM.

Regarding `O=C(Nc1nnc(-c2ccc(Br)cc2)o1)c1ccco1`, the concentration giving a half-maximal response (EC50) was 1.2 µM.

Turning to `N#Cc1c(-c2ccccc2)nc(SCC(=O)N2c3ccccc3Sc3ccccc32)[nH]c1=O`, the EC50 was 3.87 µM.

Consider `CCc1ccc(/C=C/C(=O)c2cc(Br)ccc(=O)c2O)cc1`, for which the EC50 is 0.417 µM.

`CC(=O)NNC(=S)NC(=O)C(c1ccccc1)c1ccccc1`: the concentration giving a half-maximal response (EC50) is 0.853 µM.

On to `CC(=O)Nc1nnc(S(=O)(=O)N2CCN(c3ccc(Cl)cc3[N+](=O)[O-])CC2)s1`, for which the EC50 is > 15 µM (inactive).

On to `Cc1csc2nc(CSc3nc4ccccc4o3)c(Br)n12`, for which the 50% effective concentration (EC50) is 6.42 µM.

Take `Cc1c(NCc2cc(Cl)cc(Cl)c2O)c(=O)n(-c2ccccc2)n1C`: the EC50 was 3.39 µM.

Regarding `Cc1ccc(C(=O)NC(=S)NNC(=O)c2cccc([N+](=O)[O-])c2)cc1`, the EC50 is 1.69 µM.

Consider `O=C(c1cccs1)N1N=C(c2ccccc2)CC1c1ccccc1` (configuration not stated), for which the EC50 was 6.41 µM.

Take `Clc1ccc(C2C3=C(Nc4ncnn42)c2ccccc2CC3)cc1` (configuration not stated): the EC50 was 11.4 µM.

Consider `Cc1cc(C)c(CSc2ncc(-c3ccc([N+](=O)[O-])cc3)[nH]2)c(C)c1`, for which the concentration for a half-maximal effect (EC50) was 4.19 µM.

Consider `CC(C)=CCc1c(O)cc2c(c1O)C(=O)CC(c1ccc(O)cc1)O2` (configuration not stated), for which the concentration giving a half-maximal response (EC50) is 6.08 µM.

Consider `CC(C)(C)c1nc(NC(=O)Nc2ccccc2)sc1Br`, for which the EC50 was 6.3 µM.

Turning to `CCc1nnc(NC(=O)c2ccc(S(=O)(=O)N3CCCc4ccccc43)cc2)o1`, the concentration giving a half-maximal response (EC50) is 1.68 µM.

For `CCCc1nc(NCc2ccccc2)c(C#N)c2c1CCCC2`, the EC50 is 2.93 µM.

As to `C[C@H]1CC[C@@]2(C)[C@@H](CC[C@@H]3[C@@H]2CC[C@]2(C)[C@@H](O)CC[C@@H]32)C1`, the half-maximal effective concentration (EC50) is 0.856 µM.

As to `Cc1nc2c(C(=O)NCc3ccc4c(c3)OCO4)cnn2c(C)c1Cc1ccc(F)cc1Cl`, the EC50 is 14.7 µM.

In the case of `Cc1ccc(-c2[nH]nc(N)c2N=Nc2ccccc2C)cc1`, the half-maximal effective concentration (EC50) is 1.07 µM.

In the case of `CCC(C)c1ccc(C2C3=C(Nc4nc(N)[nH]c(=O)c42)c2ccccc2C3=O)cc1` (configuration not stated), the EC50 was 3.71 µM.

As for `CC(=O)Nc1ccc(C#Cc2ccc(NC(C)=O)cc2)cc1`, the EC50 was 1.19 µM.

Turning to `CCCc1ccc(-c2cc(C(=O)N/N=C/c3ccc([N+](=O)[O-])o3)c3ccccc3n2)cc1`, the EC50 was 1.74 µM.

`Cn1cc(C(=O)c2ccc(Cl)cc2Cl)cc1C(=O)N/N=C(\N)COc1cccc(C(F)(F)F)c1`: the concentration giving a half-maximal response (EC50) was 3.22 µM.

Turning to `Oc1cccc(-c2nc3ccc4ccccc4c3c3c2CCC3)c1`, the concentration giving a half-maximal response (EC50) was 8.4 µM.

For the compound `O=c1c2cc(Cl)ccc2nc(-c2ccc(Cl)c(Cl)c2)n1O`, the 50% effective concentration (EC50) is 0.235 µM.

`Cc1cc(C)n(-c2nc(C)nc(NCc3ccccc3)n2)n1`: the EC50 was > 15 µM (inactive).

Regarding `Cc1ccc(NC(=S)NNC(=S)Nc2cccc(C(F)(F)F)c2)cc1`, the concentration for a half-maximal effect (EC50) is 2.04 µM.

For the compound `Cc1nc(N)sc1-c1csc(N(C)c2ccc(O)cc2)n1`, the EC50 is 3.57 µM.

Consider `Cc1ccccc1-c1cc2nc(-c3ccc([N+](=O)[O-])cc3)cc(=O)n2[nH]1`, for which the concentration for a half-maximal effect (EC50) is 11.9 µM.

Regarding `COc1cccc(/C=C/C(=C2/C(=O)N(c3ccccc3)N=C2C)c2ccc(Br)cc2)c1OC`, the EC50 is > 15 µM (inactive).

Turning to `COc1ccc2c(c1)[nH]c1c(=O)n(CCc3cnc[nH]3)cnc12`, the EC50 is > 15 µM (inactive).

Take `COc1ccc(N2CC(C(=O)Nc3nnc(SCc4cccnc4)s3)CC2=O)cc1` (configuration not stated): the EC50 is > 15 µM (inactive).

For `COc1ccc(C(C)=O)cc1COc1cc(C)c(Cl)c(C)c1`, the EC50 is > 15 µM (inactive).

`CCOC(=O)C1CCN(C2=C(NS(=O)(=O)c3ccc(Cl)cc3)C(=O)c3ccccc3C2=O)CC1`: the EC50 was 7.15 µM.

As for `N[C@@H](C(=O)N[C@@H]1C(=O)N2C(C(=O)O)=C(Cl)CS[C@H]12)c1ccccc1`, the EC50 was 0.465 µM.

For the compound `N=C(N)c1ccc(OCCCCCOc2ccc(C(=N)N)cc2)cc1`, the EC50 was less than 0.06 µM.

Consider `Nc1nc2ccccc2n1/N=C/c1ccc(-c2ccccc2)o1`, for which the EC50 is 1.96 µM.

For the compound `Cc1nn2c(N3CCN(C(=O)c4ccco4)CC3)cc(C(C)(C)C)nc2c1-c1ccccc1`, the half-maximal effective concentration (EC50) was 6.19 µM.

For `Cc1cc(C)c(COc2ccc(/C=N/n3c(C)n[nH]c3=S)cc2)c(C)c1`, the concentration for a half-maximal effect (EC50) is 5.33 µM.

On to `O=C(CCN1C(=O)/C(=C/c2ccccc2Cl)SC1=S)NNC(=O)c1ccccc1O`, for which the EC50 is 3.35 µM.

`CCC(C)Sc1cc(C(F)(F)F)c(C(=O)Nc2ccc(Cl)cc2)cn1` (configuration not stated): the half-maximal effective concentration (EC50) was 7.31 µM.

As for `Cc1noc(C)c1CSCC(=O)Nc1nc2ccc(Oc3ccccc3)cc2s1`, the 50% effective concentration (EC50) is 4.85 µM.

These data come from PubChem BioAssay AID1902 (Broad Institute, 2009).
